The values below come from patent US20220305023A1, “Chlorophyllin Containing Pharmaceutical Composition For Prevention Of Pathogenesis Of Coronavirus Disease” (priority 2021, published 2022).

For data set [1], the system named is SARS-CoV-2 virus. The format is cell-based.
The nature of data set [2]: Acute oral toxicity (oral gavage). The format is in vivo, mice and rats. The protocol:
(§1) Different doses of Chlorophyllin (100 to 5000 mg/kg body weight) were given to mice and rats (6 males, 6 females) by oral gavage in an accredited facility for animal toxicity testing.

Data set [3] can be described thus: 28 day repeat dose toxicity. The format is in vivo, rats. The conditions noted are these: 1000 mg/kg body weight daily for 28 consecutive days. The protocol: as §1
In data set [4] the test system is neutrophils. In words: Phase I study: absolute neutrophil count (ANC) in blood. The format is in vivo, human. As to the method: (§2) An open label Phase I clinical study was conducted to assess pharmacodynamics of sodium copper Chlorophyllin in healthy adult, human male subjects under fasting conditions. The study was approved by Drug Controller General of India (DCGI). The trial is registered with the Clinical Trial Registry of India (CTRI/2018/09/015576). Five healthy male subjects were allowed to fast overnight and one Chlorophyllin tablet (750 mg) was administered to each subject by oral route along with ˜200 ml water. The subjects were given breakfast, lunch and snacks and a second tablet of Chlorophyllin (750 mg) was administered to each subject by oral route along with 200 ml water after 12 hr.
(§3) Chlorophyllin tablets comprising Chlorophyllin or salts thereof (750 mg), were administered to healthy human subjects after overnight fasting. Blood samples were collected through an indwelling intravenous cannula (Venflon) placed in the fore arm vein of the subjects at different time intervals. Absolute neutrophil count (ANC) and white blood cell (WBC) counts were measured. Serum was separated and chemokine concentration in the serum was measured using cytometric bead array.

Data set [5] deals with white blood cells. In words: Phase I study: white blood cell (WBC) count in blood. The format is in vivo, human. The conditions noted are these: 8-16 hr after first dose of 750 mg. The protocol:
as §2, §3

Data set [6] concerns lymphocytes. The data set can be described thus: Phase I study: absolute lymphocyte count in blood. The format is in vivo, human. The conditions noted are these: 750 mg tablets, healthy subjects. As to the method: as §2, §3
The test system of data set [7] is CD34+ hematopoietic stem and progenitor cells. In words: Phase I study: CD34+ hematopoietic stem and progenitor cells in blood by flow cytometry. The format is in vivo, human. The conditions noted are these: 750 mg tablets, five subjects. As to the method: as §2
Blood sample at each time point was also collected in K2EDTA vacutainer tube and erythrocytes were lysed using RBC lysis buffer. Then cells were stained with fixable far red live dead reagent and PE-CD34 and FITC-CD45 antibodies at 4° C. and fixed with 4% formaldehyde. The frequency of CD34+ hematopoietic stem and progenitor cells in the blood was determined by flow cytometry and FlowJo software.

The nature of data set [8]: Phase I study: tolerability in healthy human subjects. The format is in vivo. The conditions noted are these: 750 mg given twice a day, five subjects. As to the method: as §2
Data set [9] has as its system Vero CCL-81 cells. The conditions noted are these: 5 μM.

For Sodium copper Chlorophyllin, in data set [1] (0.1 micro molar), the “effect on SARS-CoV-2 virus multiplication” value was “did not inhibit”. In data set [1] (5 micro-molar, 72 hr, Vero CCL-81 cells), the “inhibition of SARS-CoV-2 multiplication” value is reported as ~87%. The “concentration required for ~90% inhibition of multiplication of SARS-CoV-2 virus” value in data set [1] (Vero CCL-81 cells, 72 hr) is “about 5 micro molar”. Besides, the EC50 in [1] (Vero CCL-81 cells, 72 hr, read-out: concentration required to inhibit SARS-CoV-2 multiplication by 50% (EC50)) was < 1000 nM. Also, in [1] (less than 1 micro-molar), the “effect on multiplication of SARS-CoV-2 virus” value is recorded as “did not significantly decrease”. Moreover, in data set [2] (rodents, indicated doses (acute up to 5000 mg/kg; 1000 mg/kg for 28 days)), the signs of toxicity result is given as “no signs of toxicity”. For the same substance, the LD50 result in data set [2] (rodents, oral, proposed from absence of toxicity) is on record as “higher than 5000 mg/kg body weight”. For the same substance, the “tolerability of acute oral dose” value in data set [2] (up to 5000 mg/kg body weight, oral gavage, mice and rats) is given as “well tolerated”. Moreover, the “tolerability of repeat dose” value in [3] is listed as “well tolerated”. Moreover, the “time to ANC increase after first dose” value in [4] (750 mg, 4 hr before second dose) was ≤ 8 h. Also, the “increase in ANC relative to pre-dose value” in data set [4] (8-16 hr after first dose of 750 mg, fasting, five subjects) is 12.4-32.5%. Moreover, the “increase in WBC count relative to pre-dose value” in data set [5] is listed as 12.8-26.5%. Besides, in data set [6], the “increase in lymphocyte counts in human blood as compared to pre-dose value” is listed as “up to 30%”. The “relative decrease in percentage of CD34+ HPSCs in human blood as compared to pre-dose value” in data set [7] is reported as 50-85%. Also, the “tolerability in human subjects” value in data set [8] is “well tolerated”. The “cytotoxicity in the target cells” value in data set [9] is reported as “without causing cytotoxicity”.
